Measured values as given in patent publication US20080003215A1, “Use of pre-dissolved pristinamycin-type and polyether ionophore type antimicrobial agents in the production of ethanol” (priority 2006, published 2008).

Test system: L. plantarum
Assay: Development of resistance test (10 week duration)
Format: cell-based
Conditions: 10 week duration of the test
Description: One very effective control program involves the introduction of pristinamycin-type antimicrobial agents, and particularly virginiamycin, to the process. […] Usually, the “waste” byproduct, known as “Dried Distillers Grains with Solubles (DDGS), is sold as animal feed, going 45% to dairy, 35% to beef, 15% to swine, and 5% to poultry industries. This is an important factor in the profitability of an ethanol production process, and the total amount of this byproduct produced per year is on the order of 3.5 million metric tons per year. The presence of residual antimicrobial agents in this material can adversely affect the value of this byproduct, as small residual amounts of antimicrobial agents in feed will promote the development of agent-resistant microorganisms. We have tested DDGS samples from 8 major ethanol producers using virginiamycin to control microorganisms and found no detectable amount of virginiamycin in the DDGS (<1 ppm via the validated Eurofins analysis and <1 ppb via an unvalidated experimental analytical procedure). […] Generally, however, the virginiamycin in mash is destroyed by drying so virginiamycin must be re-added to the feed if so desired. Other effective control agents include polyether ionophore-type antimicrobial agents, which provide many of the benefits obtained with pristinamycin-type antimicrobial agents. […]

Substance: virginiamycin
- Time until L. plantarum developed resistance: no development of resistance
